Measured values: patent US9561231B2 (AbbVie Inc., priority 2012, dated 2017)
Where two headings read alike, the source gives them in different places.

Key:
[1] = molecular target: T1, second (BD2: amino acids E352-E168) bromodomain of BRD4 (Homo sapiens, UniProt O60885); experiment: TR-FRET bromodomain binding assay, BRD4 BD2; conditions: Ki calculated from IC50, probe Kd and probe concentration, read-out: TR-FRET Binding Ki: BRD4 (BDII_E352-M457)
T1 construct: protocol
Outline: (§1)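 Displacement of Alexa647-labeled BET-inhibitor probe from His-tagged bromodomain, TR-FRET read-out; buffer 20 mM Na phosphate pH 6.0, 50 mM NaCl, 0.01% Triton X-100. IC50 by 4PL fit; Ki calculated from IC50, probe Kd and probe concentration.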

[2] = test system: breast cancer cell line MX-1; experiment: MX-1 cell line proliferation assay (3-day); type: cell-based; conditions: Homo sapiens, MX1, MX-1 cells, Cell Titer Glo, read-out: Cellular proliferation: EC50
Outline: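 MX-1 cells in RPMI/10% FBS, plated 5000/well overnight, then exposed to compound at final 3 to 0.0001 μM (3-fold series) for 3 days at 37° C. Cell Titer Glo luminescence normalized to DMSO-treated cells; EC50 from sigmoidal curve fit.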

[3] = test system: LPS induced IL-6 production; experiment: LPS (lipopolysaccharide) induced IL-6 production mouse assay; conditions: 1 h before LPS 2.5 mg/kg i.p., serum IL-6 2 h after LPS, p<0.05
[4] = molecular target: T2, first (BD1: amino acids K57-E168) bromodomain of BRD4 (Homo sapiens, UniProt O60885); experiment: TR-FRET bromodomain binding assay, BRD4 BD1; conditions: Ki calculated from IC50, probe Kd and probe concentration, read-out: TR-FRET Binding Ki: BRD4 (BDI_K57-E168)
T2 construct: His-tagged first (BD1: amino acids K57-E168)
Outline: as §1

[5] = TR-FRET assay protocol (A-G, compound concentration range)
[6] = TR-FRET assay protocol (D, E or G) per compound

SMILES | Ki [1, 6] [nM] | EC50 ([2]; 72 hours with compound) [nM] | Ki [4, 6] [nM] | also measured
COc1cc(=O)n(C)nc1-c1cc(NS(C)(=O)=O)ccc1Oc1ccccc1 [Example 22, N-[3-(4-methoxy-1-methyl-6-oxo-1,6-dihydropyridazin-3-yl)-4-phenoxyphenyl]methanesulfonamide] | – | – | – | Ki [1, 5]: 51.9 nM; EC50 ([2]; 72 h incubation): 730 nM; Inhibition of LPS induced IL-6 production, % inhibition ([3]; 50 mg/kg oral): 53.9 @ 50 mg/kg %; Ki [4, 5]: 258 nM
Cn1cc(-c2cc(NS(C)(=O)=O)ccc2Oc2ccc(Cl)cc2)ccc1=O [Example 233, N-[4-(4-chlorophenoxy)-3-(1-methyl-6-oxo-1,6-dihydropyridin-3-yl)phenyl]methanesulfonamide] | – | – | – | Ki [1, 5]: 110 nM; EC50 ([2]; 72 h incubation): 423 nM; Inhibition of LPS induced IL-6 production, % inhibition ([3]; 30 mg/kg oral): 75.9 @ 30 mg/kg %; Ki [4, 5]: 19.2 nM
[2H]C([2H])(C)Oc1cc(=O)n(C)cc1-c1cc(NS(=O)(=O)CC)ccc1Oc1ccc(F)cc1F [Example 333, N-[4-(2,4-difluorophenoxy)-3-{4-[(1,1-^2H2)ethyloxy]-1-methyl-6-oxo-1,6-dihydropyridin-3-yl}phenyl]ethanesulfonamide] | – | – | – | Inhibition of LPS induced IL-6 production, % inhibition ([3]; 3 mg/kg oral): 63.6 @ 3 mg/kg %
CCOc1cc(=O)n(C)cc1-c1cc(NS(=O)(=O)CC)ccc1Oc1ccc(C(F)(F)F)cc1 [Example 386, N-{3-(4-ethoxy-1-methyl-6-oxo-1,6-dihydropyridin-3-yl)-4-[4-(trifluoromethyl)phenoxy]phenyl}ethanesulfonamide] | 10.2 | 54.1 | 81.8 | –
CCS(=O)(=O)Nc1ccc(Oc2ccc(F)cc2F)c(-c2cn(C)c(=O)cc2-c2cnn(Cc3ccccc3)c2)c1 [Example 390, N-{3-[4-(1-benzyl-1H-pyrazol-4-yl)-1-methyl-6-oxo-1,6-dihydropyridin-3-yl]-4-(2,4-difluorophenoxy)phenyl}ethanesulfonamide] | 13.5 | 79.8 | 36.5 | –
CCS(=O)(=O)Nc1ccc(Oc2ccc(F)cc2F)c(-c2cn(C)c(=O)cc2-c2cnn(CC(C)C)c2)c1 [Example 391, N-[4-(2,4-difluorophenoxy)-3-{1-methyl-4-[1-(2-methylpropyl)-1H-pyrazol-4-yl]-6-oxo-1,6-dihydropyridin-3-yl]phenyl}ethanesulfonamide] | 4.59 | 57.3 | 9.05 | –
CCS(=O)(=O)Nc1ccc(Oc2ccc(F)cc2F)c(-c2cn(C)c(=O)cc2-c2ccco2)c1 [Example 392, N-{4-(2,4-difluorophenoxy)-3-[4-(furan-2-yl)-1-methyl-6-oxo-1,6-dihydropyridin-3-yl]phenyl}ethanesulfonamide] | 4.29 | 69.2 | 22 | –
CCS(=O)(=O)Nc1ccc(Oc2ccc(F)cc2F)c(-c2cn(C)c(=O)cc2-c2ccoc2)c1 [Example 393, N-{4-(2,4-difluorophenoxy)-3-[4-(furan-3-yl)-1-methyl-6-oxo-1,6-dihydropyridin-3-yl]phenyl}ethanesulfonamide] | 2.49 | 70.7 | 11.9 | –
CCOc1cc(=O)n(C)cc1-c1cc(NS(=O)(=O)CC)ccc1O[C@H]1CC[C@H](NC(=O)OC(C)(C)C)CC1 [Example 395, tert-butyl(trans-4-{2-(4-ethoxy-1-methyl-6-oxo-1,6-dihydropyridin-3-yl)-4-[(ethylsulfonyl)amino]phenoxy}cyclohexyl)carbamate] | 221 | 479 | 105 | –
CCOc1cc(=O)n(C)cc1-c1cc(NS(=O)(=O)CC)ccc1Oc1ccc(F)cc1 [Example 396, N-[3-(4-ethoxy-1-methyl-6-oxo-1,6-dihydropyridin-3-yl)-4-(4-fluorophenoxy)phenyl]ethanesulfonamide] | 3.17 | 15.6 | 9.54 | –
CCOc1cc(=O)n(C)cc1-c1cc(S(=O)(=O)N2CCc3ccccc32)ccc1OCC1CC1 [Example 397, 5-[2-(cyclopropylmethoxy)-5-(2,3-dihydro-1H-indol-1-ylsulfonyl)phenyl]-4-ethoxy-1-methylpyridin-2(1H)-one] | 8.84 | 86.6 | 75.2 | –
CCS(=O)(=O)Nc1ccc(Oc2ccc(F)cc2F)c(-c2cn(C)c(=O)cc2OCC2CCNCC2)c1 [Example 399, N-{4-(2,4-difluorophenoxy)-3-[1-methyl-6-oxo-4-(piperidin-4-ylmethoxy)-1,6-dihydropyridin-3-yl]phenyl}ethanesulfonamide] | 20.1 | > 3000 | 31.1 | –
CCOc1cc(=O)n(C)cc1-c1cc(NS(=O)(=O)CC)ccc1Oc1ccc(F)c(F)c1 [Example 401, N-[4-(3,4-difluorophenoxy)-3-(4-ethoxy-1-methyl-6-oxo-1,6-dihydropyridin-3-yl)phenyl]ethanesulfonamide] | 4.99 | 25.1 | 19.8 | –
CCOc1cc(=O)n(C)cc1-c1cc(NS(=O)(=O)CC)ccc1Oc1cc(F)c(F)c(F)c1 [Example 402, N-[3-(4-ethoxy-1-methyl-6-oxo-1,6-dihydropyridin-3-yl)-4-(3,4,5-trifluorophenoxy)phenyl]ethanesulfonamide] | 16.6 | 55.2 | 32.3 | –

The next lines start with results.

Ki [1, 6] [nM] | EC50 ([2]; 72 hours with compound) [nM] | Ki [4, 6] [nM] | SMILES | also measured
1.38 | 23.9 | 14.7 | CCOc1cc(=O)n(C)cc1-c1cc(NS(=O)(=O)CC)ccc1Oc1ccc(Cl)cc1F [Example 403, N-[4-(4-chloro-2-fluorophenoxy)-3-(4-ethoxy-1-methyl-6-oxo-1,6-dihydropyridin-3-yl)phenyl]ethanesulfonamide] | –
1.43 | 24.7 | 11.8 | CCOc1cc(=O)n(C)cc1-c1cc(NS(=O)(=O)CC)ccc1Oc1c(F)cc(Cl)cc1F [Example 404, N-[4-(4-chloro-2,6-difluorophenoxy)-3-(4-ethoxy-1-methyl-6-oxo-1,6-dihydropyridin-3-yl)phenyl]ethanesulfonamide] | –
4.99 | 50.2 | 36.3 | CCOc1cc(=O)n(C)cc1-c1cc(NS(=O)(=O)CC)ccc1Oc1cccnc1 [Example 405, N-[3-(4-ethoxy-1-methyl-6-oxo-1,6-dihydropyridin-3-yl)-4-(pyridin-3-yloxy)phenyl]ethanesulfonamide] | –
2.06 | 72.3 | 6.92 | CCS(=O)(=O)Nc1ccc(Oc2ccc(F)cc2F)c(-c2cn(C)c(=O)cc2-c2ccc(C)s2)c1 [Example 407, N-{4-(2,4-difluorophenoxy)-3-[1-methyl-4-(5-methylthiophen-2-yl)-6-oxo-1,6-dihydropyridin-3-yl]phenyl}ethanesulfonamide] | –
19.1 | 115 | 45.1 | CCOc1cc(=O)n(C)cc1-c1cc(NS(=O)(=O)CC)ccc1Oc1ccc(C#N)cc1F [Example 408, N-[4-(4-cyano-2-fluorophenoxy)-3-(4-ethoxy-1-methyl-6-oxo-1,6-dihydropyridin-3-yl)phenyl]ethanesulfonamide] | –
47 | 254 | 61.3 | CCOc1cc(=O)n(C)cc1-c1cc(NC(=O)c2cncs2)ccc1Oc1ccc(F)cc1F [Example 411, N-[4-(2,4-difluorophenoxy)-3-(4-ethoxy-1-methyl-6-oxo-1,6-dihydropyridin-3-yl)phenyl]-1,3-thiazole-5-carboxamide] | –
11.9 | 251 | 28.9 | CCOc1cc(=O)n(C)cc1-c1cc(NC(=O)c2cc(Cl)ccc2Cl)ccc1Oc1ccc(F)cc1F [Example 412, 2,5-dichloro-N-[4-(2,4-difluorophenoxy)-3-(4-ethoxy-1-methyl-6-oxo-1,6-dihydropyridin-3-yl)phenyl]benzamide] | –
33.3 | 279 | 40.5 | CCOc1cc(=O)n(C)cc1-c1cc(NC(=O)c2ccccn2)ccc1Oc1ccc(F)cc1F [Example 415, N-[4-(2,4-difluorophenoxy)-3-(4-ethoxy-1-methyl-6-oxo-1,6-dihydropyridin-3-yl)phenyl]pyridine-2-carboxamide] | –
2.84 | 1000 | 25.3 | CCOc1cc(=O)n(C)cc1-c1cc(S(=O)(=O)N2CCc3ccccc32)ccc1Oc1ccc(F)cc1F [Example 419, 5-[2-(2,4-difluorophenoxy)-5-(2,3-dihydro-1H-indol-1-ylsulfonyl)phenyl]-4-ethoxy-1-methylpyridin-2(1H)-one] | –
22.1 | 832 | > 238 | CCOc1cc(=O)n(C)cc1-c1cc(N(C)S(=O)(=O)Cc2ccccc2)ccc1Oc1ccc(F)cc1F [Example 420, N-[4-(2,4-difluorophenoxy)-3-(4-ethoxy-1-methyl-6-oxo-1,6-dihydropyridin-3-yl)phenyl]-N-methyl-1-phenylmethanesulfonamide] | –
